According to patent US20070129384A1 (priority 2003, published 2007):
Read-outs that look alike come from different tables or passages of the source.

System: Pyricularia oryzae
Assay type: in vivo
Conditions: individual active compound, protective, rice leaves, evaluated 6 days after inoculation, untreated 89% infection

CC1CCN(c2c(-c3c(F)cc(F)cc3F)c(Cl)nc3ncnn23)CC1 [I, 5-chloro-7-(4-methylpiperidin-1-yl)-6-(2,4,6-trifluorophenyl)-[1,2,4]tri-azolo[1,5-a]pyrimidine]
Efficacy in % of the untreated control (1 ppm in the spray liquor): 10% | Efficacy in % of the untreated control (16 ppm in the spray liquor): 32%

COC(=O)Nc1nc2ccccc2[nH]1 [II, methyl (1 H-benzoimidazol-2-yl)carbamate]
Efficacy in % of the untreated control (4 ppm in the spray liquor): 0% | Efficacy in % of the untreated control (16 ppm in the spray liquor): 32%
